Patent US6410525B1, “Carbapenem derivatives, utilization thereof and intermediate compounds of the same” (Kyoto Pharmaceutical Industries, Ltd., priority 1998, dated 2002)

Assay: Oral absorption test: concentration of hydrolyzed carbapenem compound (A) in plasma after oral administration
Assay type: in vivo
Conditions: mice, 100 mg/kg orally, hydrolyzed carbapenem compound (A) by HPLC
Protocol: The compound of the present invention (100 mg/kg, compound of Example 13) was orally administered to mice (3 per group) and the concentration of hydrolyzed carbapenem compound (A) in plasma was determined at 0.25, 0.5, 1.0, 2.0 and 3.0 hours later by HPLC.
The compound of the present invention (100 mg/kg, compound of Example 15) was orally administered to mice (3 per group) and the concentration of hydrolyzed carbapenem compound (A) in plasma was determined at 0.25, 0.5, 1.0, 2.0 and 3.0 hours later by HPLC.

Structure (SMILES)	Average concentration in plasma (0.25 hr) [µg/mL]	Average concentration in plasma (0.5 hr) [µg/mL]	Average concentration in plasma (1.0 hr) [µg/mL]	Average concentration in plasma (2.0 hr) [µg/mL]	Average concentration in plasma (3.0 hr) [µg/mL]
CCC(=O)OCOC(=O)N1C[C@@H](SC2=C(C(=O)OCOC(=O)C(C)(C)C)N3C(=O)[C@H]([C@@H](C)O)[C@H]3[C@H]2C)C[C@H]1C(=O)N(C)C [Example 13]	9.5	4.8	1.9	0.6	0.2
CC(C)C(=O)OCOC(=O)N1C[C@@H](SC2=C(C(=O)OCOC(=O)C(C)(C)C)N3C(=O)[C@H]([C@@H](C)O)[C@H]3[C@H]2C)C[C@H]1C(=O)N(C)C [Example 15, pivaloyloxymethyl (1R,5S,6S)-2-[(3S,5S)-(5-N,N-dimethylaminocarbonyl-1-isobutyryloxymethyloxycarbonyl)pyrrolidin-3-ylthio]-6-[(1R)-1-hydroxyethyl]-1-methylcarbapen-2-em-3-carboxylate]	8.6	10.1	4.8	1.4	0.3
